Where two headings read alike, the source gives them in different places.

Data set [1] relates to agrégation plaquettaire provoquée par l'ADP. Nature of the data set: Inhibition of ADP-induced platelet aggregation, rat. Type of data set: in vivo. As to conditions: 100 mg/Kg. On the procedure:
(§1) Ce produit inhibe l'agrégation plaquettaire provoquée par l'ADP (adénosine diphosphate) : • sur le sang humain, inhibition de 40 % à 100 mg/Kg, sur le rat et le lapin, inhibition de 60 Z à 100 mg/Kg.

The nature of data set [2]: Acute toxicity in male SWISS mice. As to conditions: mouse, in vivo, souris mâle SWISS, read-out: toxicité (converted). The protocol:
Sa toxicité est de 1 500 mg/Kg par voie orale et de 750 mg/Kg par voie intrapéritonéale, déterminée sur la souris mâle-de la souche SWISS.

Another data set relates to chien anesthésié. The data set is described as follows: Cardiovascular and respiratory effects in the pentobarbital-anaesthetised dog after IV injection. Type of data set: in vivo. The following applies: chien anesthésié au Pentobarbital, IV 50 mg/Kg.
Data set [3] deals with artériopathies périphériques, oedème de la cheville, varices. Nature of the data set: Therapeutic application (peripheral arteriopathies, ankle oedema, varices). Type of data set: in vivo.
Data set [4] concerns souris. The data set is described as follows: Phenylbenzoquinone test (analgesia) in mice. The data set is classed as in vivo. The following applies: test à la phénylbenzoquinone, 500 mg/Kg. On the procedure: (§2) En ce qui concerne l'activité analgésique, le produit donne dans le test à la phénylbenzoquinone et dans le test à la plaque chauffante chez la souris une protection de 88 % à 500 mg/Kg.

For data set [5], the system named is agrégation plaquettaire provoquée par l'ADP. The data set is described as follows: Inhibition of ADP-induced platelet aggregation, human blood. Type of data set: cell-based. As to conditions: sang humain, 100 mg/Kg. The protocol:
as §1

In a further data set the test system is rat anesthésié. Nature of the data set: Blood pressure in the anaesthetised rat after IV administration. The data set is classed as in vivo. The following applies: rat anesthésié à l'éthylméthane, IV 100 mg/Kg. On the procedure: Sur le rat anesthésié à l'éthylméthane,on enregistre après administration IV. de 100 mg/Kg de produit selon l'invention une légère hypotension, soit une baisse de 15 %.

Another data set is described as follows: Solubility (qualitative). Type of data set: physicochemical. The protocol: Plus particulièrement, l'acide fluoro-5 acétyl mélilotique se présente sous la forme d'une poudre cristalline blanche, peu soluble dans l'eau, mais soluble dans l'alcool, l'acétone et dans les solvants organiques usuels. Son point de fusion est de 96-98°C.
12 g d'acide fluoro-5 acétoxy-2 cinnamique sont dissous dans 120cm3 acétate d'éthyle avec 1,5 g de palladium sur charbon à 10 % et hydro- gènés dans l'appareil de Parr sous 5 atmosphères d'hydrogène pendant 1 heure; on filtre et concentre sous vide pour obtenir un résidu cristallisé d'acide fluoro-5 acétylmélilotique pur peu soluble dans l'eau, soluble dans l'alcool, l'acétone et les solvants organiques usuels.

The test system of data set [6] is souris. The data set is described as follows: Hot plate test (analgesia) in mice. The following applies: test à la plaque chauffante, 500 mg/Kg. The data set is classed as in vivo. The protocol: as §2
For data set [7], the system named is agrégation plaquettaire provoquée par l'ADP. The data set is described as follows: Inhibition of ADP-induced platelet aggregation, rabbit. Type of data set: in vivo. The following applies: lapin, 100 mg/Kg. On the procedure: as §1

In data set [1], `CC(=O)Oc1ccc(F)cc1CCC(=O)O` [acide fluoro-5 acétyl mélilotique] came in with an inhibition de l'agrégation plaquettaire provoquée par l'ADP of 60%. Moreover, the LD50 in data set [2] (ip, voie intrapéritonéale) is 750 mg/kg. For the same compound, in data set [2] (po, voie orale), the LD50 was 1500 mg/kg. Further, in the data set with chien anesthésié, the “augmentation du débit” value is 65%, the battements result was “renforcement”, the “diminution du rythme respiratoire” value worked out at 25% and the fréquence cardiaque entry was “sans modification”. Moreover, in the data set with chien anesthésié, the hypotension is given as 7%. Also, in data set [3], the “application thérapeutique” value is listed as “résultats favorables”. The compound further came in with a protection in the data set on souris [4] of 88%. The “inhibition de l'agrégation plaquettaire provoquée par l'ADP” value in data set [5] was determined as 40%. Further, the “hypotension (baisse)” value with rat anesthésié stood at 15%. Also, the “solubilité dans l'alcool, l'acétone et les solvants organiques usuels” value in the data set “Solubility (qualitative)” (alcool, acétone, solvants organiques usuels) is “soluble”. Besides, in the data set “Solubility (qualitative)” (eau), the “solubilité dans l'eau” value is recorded as “peu soluble”. The protection in the data set on souris [6] is 88%. The “inhibition de l'agrégation plaquettaire provoquée par l'ADP” value in data set [7] came out at 60%.

(Values after patent EP0153538A1, “Derivatives of melilotic acid, and medicaments containing them” (Laboratoire Marcel Richard Société anonyme dite, priority 1984, dated 1985).)
